Patent US20230301981A1, “TLR7/8 ANTAGONISTS AND USES THEREOF” (Merck Patent GmbH, priority 2020, published 2023)
Like-named read-outs stand apart in the source and are kept apart here.

Molecular target: T1, TLR7 (Homo sapiens, UniProt Q9NYK1)
T1 sequence (Q9NYK1 27-1049): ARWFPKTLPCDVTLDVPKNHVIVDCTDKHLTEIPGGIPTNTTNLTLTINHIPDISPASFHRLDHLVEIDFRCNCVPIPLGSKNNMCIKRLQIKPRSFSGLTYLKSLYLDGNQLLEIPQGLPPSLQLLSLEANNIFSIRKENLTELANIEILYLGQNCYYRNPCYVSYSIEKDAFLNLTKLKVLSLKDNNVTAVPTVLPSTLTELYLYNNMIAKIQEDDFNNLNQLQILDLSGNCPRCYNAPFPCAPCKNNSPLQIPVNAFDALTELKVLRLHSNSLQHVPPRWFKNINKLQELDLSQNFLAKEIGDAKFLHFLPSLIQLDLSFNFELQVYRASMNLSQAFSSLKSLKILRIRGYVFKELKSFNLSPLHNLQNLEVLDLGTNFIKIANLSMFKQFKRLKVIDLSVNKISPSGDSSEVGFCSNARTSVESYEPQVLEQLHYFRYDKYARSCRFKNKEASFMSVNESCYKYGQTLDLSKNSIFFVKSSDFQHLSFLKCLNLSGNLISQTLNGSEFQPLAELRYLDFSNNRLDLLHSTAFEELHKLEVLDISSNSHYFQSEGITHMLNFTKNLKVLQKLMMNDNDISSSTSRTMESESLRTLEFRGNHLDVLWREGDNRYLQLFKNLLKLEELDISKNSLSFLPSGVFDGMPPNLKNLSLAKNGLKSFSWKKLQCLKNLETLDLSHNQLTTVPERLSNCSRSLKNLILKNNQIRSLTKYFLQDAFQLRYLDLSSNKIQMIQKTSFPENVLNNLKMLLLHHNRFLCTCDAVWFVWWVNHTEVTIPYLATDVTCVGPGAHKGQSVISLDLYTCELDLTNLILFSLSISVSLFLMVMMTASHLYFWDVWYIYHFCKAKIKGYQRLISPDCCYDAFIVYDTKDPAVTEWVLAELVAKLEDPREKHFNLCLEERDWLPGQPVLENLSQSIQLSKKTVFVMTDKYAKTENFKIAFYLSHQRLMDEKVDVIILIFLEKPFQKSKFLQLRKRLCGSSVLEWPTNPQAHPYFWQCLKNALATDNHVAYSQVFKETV
Experiment: HEK293 TLR7/NFKb reporter cell assay with R848 agonist
Type: cell-based
Set-up: expressed in transfected cells; host or cells: HEK293
Description: Into 384 CulturePlates (Corning 3707) was placed 5000 c/w of HEK293 TLR7/NFKb reporter cells in 30 µL DMEM without phenol red and 10% i.a. FCS and 2 mM L-glutamine. The cells were incubated for 24 h at 37° C., 10% carbon dioxide and 90% relative humidity. 3 µL of controls, standards, and compounds were dispensed to wells, incubated for 30 min then 3 µL of R848 agonist (Resiquimod) in 20 mM HEPES buffer was added. After incubation for 5 hours, it was allowed to stand at room temperature for 15 min. 10 µL of Steady-Glo substrate reagent was added and assay plates were shaken for 5 min at 1500 rpm. The assay plate was allowed to sit for 30 min at room temperature and then read on an EnVision plate reader.

COc1ccc2nc3cc(Cl)ccc3c(Nc3cc(CN4CCCC4)c(O)c(CN4CCCC4)c3)c2n1 [Compound 1, Pyronaridine] was tested, and the IC50 (Example 4 results table, assay/readout not specified, read-out: Potency) was < 1 µM and the IC50 (HEK293 TLR7/NFKb reporter cells, R848 agonist, read-out: IC50 TLR7 (IL6 READOUT) HEK TRANSFECTED) was 5 µM.
